Results on one molecule are retold here after patent publication US6521593B1, “Methods for inhibiting brain tumor growth” (Childrens Hospital Los Angeles, priority 1999, dated 2003).

The test system of test [1] is U87 glioblastoma cells. In words: Tumor cell adhesion to ECM proteins (FIG. 7), U87. The test is classed as cell-based, human. The settings on record: U87 on vitronectin and tenascin, 20 μg/ml, 8-hour incubation. On the procedure: (§1) Non tissue culture dishes were incubated 1 hour at 37° C. with vitronectin, tenascin, fibronectin or collagen I (10 μg/ml), then washed with PBS. After the wash, 5×10^5 cells /well were plated and incubated for 16 hours at 37° C. The cultures were then washed and an adhesion buffer containing 20 μg/ml of pentapeptide or control peptide were added and incubated for an additional 2-24 hours. The cultures were then washed twice with adhesion buffer and stained with Crystal violet and the OD 600 determined. The more adherent cells are present, the higher the OD. Data represent adherent cells after 8-hour incubation. U87=glioblastoma and DAOY=medulloblastoma.

The test system of test [2] is U87MG human brain tumor cells. Nature of the test: CAM assay: angiogenesis and growth of U87MG tumors on chick chorioallantoic membrane. The test is classed as in vivo. The following applies: 100 μg into a CAM vein, 6 days. On the procedure:
CAM assay: Egg supplier and preparation have been described earlier (23). Tumor cells were plated in 50 μl PBS at 4×10^6 cells/egg for DAOY and 3.5×10^6 cells/egg for U87MG. Cells were grown to tumors for 7 days, then harvested under sterile conditions, trimmed to similar sizes and […] onto the CAM of 10-day-old embryos. […] Tumors were photographed in situ after 7 days of growth, then harvested, weighed and fixed in 4% buffered formalin and embedded in paraffin. After serial sectioning, slides were stained with hematoxilin and eosin.
To assess the effect of αv antagonism on brain tumor associated angiogenesis, DAOY and U87MG human brain tumor cells were grown on chick chorioallantoic membranes (CAMs). The tumors were allowed to grow for 7 days before they were removed and reimplanted onto fresh CAMs. 24 hours after transfer, 100 μg of either the active cRGD peptide or control peptide (cRAD) was injected into a CAM vein. Tumors were grown for an additional 6 days and then weighed and analyzed for vascularization. […] In contrast to control tumors, which increased 80% in weight, αv-antagonist treated tumors decreased 30% in weight (FIG. 1b).
FIGS. 1a and 1b show the inhibition of angiogenesis (a) and tumor growth on the CAM (b) by an αv-antagonist. Brain tumors grown on CAMs were harvested and cut to similar sizes and placed on fresh CAMs of 10-day-old chicken eggs. The following day, 100 μg of active αv-inhibitor or control peptide were injected into the chicken veins and grown for another 6 days. […] Tumors placed on the CAM were weighed at the beginning and end of the experiment (b). The weight of the tumors treated with the control peptide increased by 80% for both tumor types (left, n=8), whereas it decreased by about 30% when the active peptide was administered (right, n=8).

Test [3] deals with U87 glioblastoma cells. In words: Apoptosis of cells grown on ECM (FIG. 8), U87. The test is classed as cell-based, human. The following applies: 20 μg/ml, 24 hours. On the procedure: as §1
(§2) Test conditions were as in FIG. 7, except that detached cells and adherent cells were combined after trypsinisation. The cells were then washed, suspended in 50 μl PBS and centrifuged in glass cover slides (cytospin). After fixation with 4% paraformaldehyde, the cells were stained for apoptosis using the Boehringer Apoptosis Kit. Results are expressed in a percentage of apoptotic cells versus total number of cells. Experiment was done after 24 hours of incubation with the peptides.

A further test relates to brain capillary cells. In words: Apoptosis of cells grown on ECM (FIG. 8), brain capillary cells. The test is classed as cell-based, human. The following applies: 20 μg/ml, 24 hours. On the procedure: as §1, §2
The test system of test [4] is DAOY cells. Nature of the test: Apoptosis on vitronectin (Annexin V-FITC FACS), DAOY. The format is cell-based, human. The settings on record: 20 μg/ml, 4 hrs. The protocol:
Apoptosis: Adhesion conditions were as above, except that 12 well plates covered with vitronectin and 5×10^5 cells/well were plated in adhesion buffer. […] Attached cells were trypsinized and combined with the detached cells in the supernatant and then examined for the presence of apoptotic cells using the Apo Alert Annexin V-FITC apoptosis kit (Clontech).
FIGS. 6a-6d show the integrin profile (a), effect of αv-antagonist on adhesion to (b), migration on (c) and cell viability on vitronectin (d) for brain tumor and brain capillary endothelial cells. Both DAOY and U87MG tumor cells and brain capillary cells express the integrins αvβ3 and αvβ5 (a). […] Cell viability was tested by letting the cells attach to vitronectin for 1 hour, and then exposing them for 4 hours to the control peptide or αv-antagonist (20 μg/ml) (d). Adherent and floating cells were combined and examined by FACS for apoptosis, using FITC labeled anti-annexin V and propidium iodide.
We have previously shown that pre-incubation of brain tumor or capillary cells with the cRGD peptide, or the combination of anti-αvβ3 and anti-αvβ5 antibodies, prevents cell adhesion to vitronectin. […] Attached cells were combined after trypsinization with floating cells and the number of apoptotic cells was determined by FACS, using anti-annexin V-FITC antibody and propidium iodide (Clontech Apo alert Annexin V-FITC detection apoptosis kit).

For test [5], the system named is DAOY cells. Nature of the test: Vitronectin migration (Boyden chamber), DAOY. The format is cell-based, human. The following applies: test substance 20 μg/ml, 4 hrs. On the procedure:
Migration: Transwell polycarbonate filters (8 μm pore size) were incubated for 30 min. at 37° C. with vitronectin in PBS (1 μg/ml on the upper side and 10 μg on the bottom side), blocked for 30 min. with 1% heat denatured BSA and washed with PBS. Test cells (5×10^5/well) were added in adhesion buffer containing the test substances indicated (20 μg/ml) and incubated for 4 hrs at 37° C. with the lower chamber containing adhesion buffer. Cells in the upper chamber were removed with a cotton swab and cells on the bottom part of the filter were fixed and stained with crystal violet and the number of migrated cells determined by counting.
To address whether αvβ3 and αvβ5 modulate migration on vitronectin, independent of adhestion, we tested the same cells on vitronectin-coated membranes in Boyden chambers while in the presence of blocking antibodies or cRGD. […] Since LM-609, in the absence of P1-F6, was incapable of blocking adhesion, this anti-migratory effect must be mediated through a distinct pathway which is independent of forces responsible for adhesion.

SMILES strings stand for the structures.

Regarding `CC(C)[C@H]1C(=O)N[C@@H](CCCN=C(N)N)C(=O)NCC(=O)N[C@@H](CC(=O)O)C(=O)N[C@H](Cc2ccccc2)C(=O)N1C` [EMD 121974, cyclo(Arg-Gly-Asp-D-Phe-[N-Me]-Val)], the “adhesion to ECM (adherent cells, OD 600)” value with U87 glioblastoma cells [1] is “detached from vitronectin and tenascin”. The “tumor-associated angiogenesis (stereomicroscope)” value in test [2] was “significant suppression of angiogenesis”. For the same molecule, the “decrease of tumor weight” value in test [2] (n=8, listed as active peptide) is reported as “about 30%”; in test [2] (n=8, listed as αv-antagonist), 30%. The “cell survival / apoptotic cells” value in the test with U87 glioblastoma cells [3] (U87 grown on collagen I or fibronectin) is on record as “did not alter the survival”; in the test on U87 glioblastoma cells [3] (U87 grown on vitronectin or tenascin), “increased number of dead cells”; with brain capillary cells (brain capillary cells grown on collagen I or fibronectin), “did not alter the survival”; in the test on brain capillary cells (brain capillary cells grown on vitronectin or tenascin), “increased number of dead cells”. Further, the “apoptosis after attachment to vitronectin” value with DAOY cells [4] is “significant apoptosis”. Further, the migration on vitronectin entry in the test with DAOY cells [5] is given as “significantly inhibited”.
